{
  "source": "patent US20080187492A1",
  "about": "“Drosophila Models For Diseases Affecting Learning and Memory” (priority 2004, published 2008)",
  "type_in_all_cases": "in vivo, Drosophila melanogaster",
  "key": {"[1]": {"system": "FS (dFMR1-3+frame shifted rescue fragment) flies", "assay": "Discrimination between virgin and previously mated females, FS flies", "conditions": "20-day-old; MPEP 200 μg/ml in development and adulthood (M-M)", "procedure": "(§1) Short-term memory. The model was further extended to encompass short-term memory at 60 minutes after training. After the one hour training session with a previously mated female, the female is removed and the male is placed in a holding chamber for 60 minutes, then subsequently placed in a testing chamber with a virgin female target to assess short-term memory (FIG. 4C). […] CT-CT FS flies court just as vigorously at 60 minutes after training as naive CT-CT FS flies. […] The FS groups that were treated with MPEP in development alone, adulthood alone or in both development and adulthood display experience dependent reduction of courtship activity at 60 minutes after training when compared to group matched naives M-M FS, p<0.0001, CT-M FS, p<0.0001 and M-CT FS, p<0.0001. […] Additionally, flies were tested for ability to discriminate between virgin and previously mated females (FIG. 4D).\n(§2) Flies were also tested for ability to discriminate between virgin and previously mated females in FIG. 9C."}, "[2]": {"system": "Rescue (dFMR1-3+wild type rescue fragment) flies", "assay": "Conditioned courtship: immediate recall (0 minute memory), Rescue flies", "procedure": "To assess immediate recall (0 minute memory), after the one hour training session with a previously mated female, the male was placed with a virgin target female for a ten-minute interval. This CI was then compared to the courtship level of naive males that had been placed in the training chamber for one hour with no female, before introducing them to a virgin target female for a ten-minute interval. In FIG. 1B the w1118 and Rescue lines show depression of courtship activity after training compared to naive trained males (p<0.005). However, dFMR1-3 and FS mutant lines court just as vigorously after training with a previously mated female as naive trained males, therefore these flies display no experience dependent behavioral plasticity at the time point of immediate recall. This is in spite of the fact that they court to similar levels as w1118 and Rescue lines during the training period. This implicates a deficit in synaptic plasticity for the two mutant lines at immediate recall (0 minute memory). This robust deficit in behavioral plasticity is a critical extension of the previous models of Fragile X syndrome in model organisms, since this has been completely missing in Drosophila models and is subtle in murine models, and particularly since this may be one of the most devastating aspects of the human disease.\nImmediate recall. […]"}, "[3]": {"system": "Rescue (dFMR1-3+wild type rescue fragment) flies", "assay": "Quality of naive courtship (progress to later courtship steps), Rescue flies", "conditions": "5 day old", "procedure": "In order to determine if MPEP can get into the Drosophila central nervous system (CNS) through feeding behavior, we mixed MPEP into the food at a concentration of 1,000 μg/ml (433.0 μM). Males were raised on CT food and then placed on either CT or M food. Naive males were placed in the training chamber for one hour with no female, and then placed with a virgin target female for a ten-minute interval. The naive courtship behavior was reduced by high MPEP concentration in Rescue (p<0.0001) and FS (p<0.0005) lines, and it was depressed to similar levels by high MPEP treatment in the Rescue and FS groups (FIG. 2A). […] FIG. 2B dissects the steps involved in naive courtship behavior. […] Lowering the dose of MPEP and examining naive courtship. We next decided to try a lower dose of MPEP to 200 μg/ml (86.6 μM) mixed into the food of the Drosophila. In these experiments flies were placed on either CT or M food in the larval stage and then placed on either CT of M food within four hours of eclosion. […] Therefore giving this drug in adulthood only is effective in enhancing naive courtship behavior. […] Further analysis of the quality of courtship that was performed by naive males was assessed by binning the number of males to advance to a particular phase of courtship for each genotype and pharmacologic treatment (FIG. 3B)."}, "[4]": {"system": "Rescue (dFMR1-3+wild type rescue fragment) flies", "assay": "Discrimination between virgin and previously mated females, Rescue flies", "procedure": "as §1, §2"}},
  "data": [
    {"smiles": "Cc1cccc(C#Cc2ccccc2)n1", "note": "[MPEP, 2-methyl-6-(phenylethynyl)pyridine]", "values": [
      {"measurement": "time courting virgin female compared to previously mated female (discrimination)", "setting": "[1]", "value": "spent significantly more time courting virgin female targets"},
      {"measurement": "immediate recall", "setting": "[2]; 20-day-old, MPEP in development or adulthood or both", "value": "does not adversely affect immediate recall"},
      {"measurement": "immediate recall", "setting": "[2]; 5 day old, MPEP 200 μg/ml in development or adulthood or both", "value": "does not adversely affect immediate recall"},
      {"measurement": "quality of naive courtship", "setting": "[3]; MPEP 200 μg/ml in adulthood only (CT-M)", "value": "progressed to later phases of courtship to similar levels as all other groups"},
      {"measurement": "steps involved in naive courtship behavior", "setting": "[3]; MPEP 1,000 μg/ml in adulthood, relative to CT-CT Rescue", "value": "failed to progress to later steps in courtship behavior"},
      {"measurement": "time courting virgin female compared to previously mated female (discrimination)", "setting": "[4]; 20-day-old, MPEP 200 μg/ml in development and adulthood (M-M)", "value": "spent significantly more time courting virgin female targets"},
      {"measurement": "ability to discriminate between virgin and previously mated females", "setting": "[4]; 5 day old, MPEP 200 μg/ml in adulthood only (CT-M)", "value": "spend similar amounts of time courting previously mated female targets and virgin female targets"}
    ]}
  ]
}
